“Also recorded” adds a separate entry of the source.
How the values were obtained:
[1] = target: T1, KRAS WT (Homo sapiens, UniProt P01116); assay: QRET nucleotide exchange assay, SOScat induced; assay type: biochemical; details: for KRAS binding level / KRAS binding: Fig. 3A legend, SOScat 10 nM; for KRAS binding level / EC50 / KRAS binding: 15 nM KRAS; for EC50: nucleotide titration, SOScat 5 nM (Table S2), 10 nM (Fig. 3 legend)
T1 construct: GG-Hs.KRAS4b (2-188), GG-Hs.KRAS4b (2-188) G12C; His6-MBP (N, cleaved yes); made in house; host or cells: E. coli
T1 sequence (P01116 2-188 isoform P01116-2): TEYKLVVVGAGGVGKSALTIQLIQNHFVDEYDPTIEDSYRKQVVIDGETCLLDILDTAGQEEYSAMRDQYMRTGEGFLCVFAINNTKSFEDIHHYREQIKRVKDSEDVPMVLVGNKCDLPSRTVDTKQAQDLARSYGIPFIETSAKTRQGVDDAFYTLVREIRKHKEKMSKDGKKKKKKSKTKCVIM

[2] = system: T2, KRAS WT; assay: Protein-Probe thermal stability assay; assay type: binding, human; details: for KRAS stabilizing effect / concentration at which KRAS was stabilized / thermal stability effect: 1 mM MgCl2; for KRAS stabilizing effect / Thermal Stability (°C): GMP 1 mM, GMP-PCP 300 µM; for Thermal Stability (°C): Table S1, additive as headed: EDTA 0.5 mM, MgCl2 1 mM, GDP 10 mM, GTP 10 µM, GTPγS 10 µM, GMP-PNP 300 µM; for thermal stability effect: 10 µM compound
T2 construct: His6-MBP (N, cleaved yes); made in house; host or cells: E. coli
Method: (§1) All Protein-Probe assays were performed using a sample volume of 8 µL and a two-step assay protocol. Detection was performed at room temperature (RT) by adding 65 µL Protein-Probe solution: 4 µM HIDC (1,1,3,3,3′,3′-hexamethylindodicarbocyanine iodide) and 1–1.5 nM Eu^3+-labeled peptide probe (NH2-[…]). Assays were performed in a sample buffer containing 10 mM HEPES (pH 7.5), 0.001% Triton X-100 and 20 mM NaCl and the buffer was supplemented with 0–10 mM MgCl2, 0–1 mM CaCl2, or 0–1 mM EDTA, depending on the assay. In all thermal stability assays, samples were preincubated at RT for 10 min (nucleotides) or 30 min (inhibitors) prior to thermal measurements. Depending on the studied protein, thermal ramping was performed up to 95 °C, using 5 °C intervals. At each temperature, samples were incubated for 3 min before the Protein-Probe solution was added, and the TRL-signals at 620 nm were monitored at RT.
(§2) In addition, KRAS WT was monitored in a sample buffer supplemented with 0–10 mM MgCl2 or 0–1 mM CaCl2.
[…] KRAS WT (50 nM) was also monitored with 10 µM GDP in a buffer without MgCl2 or supplemented with 0–1 mM CaCl2 or 1 mM EDTA. HRAS (2 µM), NRAS (2 µM), RhoA (2 µM), and Gαi (50 nM) were monitored with 100 µM GDP, GTP, or ATP in buffers with or without 1 mM MgCl2 and 1 mM EDTA. In addition, melting curves for KRAS WT (50 nM) were measured with GTP analogs GTPγS, GMPPNP, and GMPPCP (0–300 µM), and GMP (0–1000 µM) in the presence of 1 mM MgCl2.
(§3) All inhibitor assays were performed with a buffer containing 1 mM MgCl2. […]

[3] = system: T3, KRAS G13D; assay: Protein-Probe thermal stability assay; assay type: binding, human; details: for Thermal Stability (°C): Table S1, KRAS G13D 50 nM, EDTA 0.5 mM, MgCl2 1 mM, GDP 10 mM, GTP 10 µM as headed
T3 construct: GG-Hs.KRAS4b (2-188) G13D; His6-MBP (N, cleaved yes); made in house; host or cells: E. coli
Method: as §1, §2
(§4) KRAS G13D (50 nM) was monitored in the presence of 0–900 nM GDP, and KRAS WT, G13D, G12D, and Q61R (50 nM) were monitored with 10 and/or 100 µM GDP, GTP, and ATP in buffer supplemented with 1 mM MgCl2. KRAS WT (50 nM) was also monitored with 10 µM GDP in a buffer without MgCl2 or supplemented with 0–1 mM CaCl2 or 1 mM EDTA. HRAS (2 µM), NRAS (2 µM), RhoA (2 µM), and Gαi (50 nM) were monitored with 100 µM GDP, GTP, or ATP in buffers with or without 1 mM MgCl2 and 1 mM EDTA. In addition, melting curves for KRAS WT (50 nM) were measured with GTP analogs GTPγS, GMPPNP, and GMPPCP (0–300 µM), and GMP (0–1000 µM) in the presence of 1 mM MgCl2.
(§5) Assays were performed using three DARPins alone or in combination with small molecular inhibitors. […] The thermal curves were monitored after an additional 30 min incubation at RT.

[4] = system: T4, KRAS Q61R; assay: Protein-Probe thermal stability assay; assay type: binding, human; details: for Thermal Stability (°C): Table S1, KRAS Q61R 50 nM, EDTA 0.5 mM, MgCl2 1 mM, GDP 10 mM, GTP 10 µM as headed
T4 construct: GG-Hs.KRAS4b (2-188) Q61R; His6-MBP (N, cleaved yes); made in house; host or cells: E. coli
Method: as §1, §2, §4, §5

[5] = system: T5, RhoA; assay: Protein-Probe thermal stability assay; assay type: binding; details: Table S1; RhoA 1 µM; additive concentrations not given (100 µM GDP/GTP)
T5 construct: and RhoA (1-182) were gen-; His6-MBP (N, cleaved yes); made in house; host or cells: E. coli
Method: as §1, §2
KRAS G13D (50 nM) was monitored in the presence of 0–900 nM GDP, and KRAS WT, G13D, G12D, and Q61R (50 nM) were monitored with 10 and/or 100 µM GDP, GTP, and ATP in buffer supplemented with 1 mM MgCl2. KRAS WT (50 nM) was also monitored with 10 µM GDP in a buffer without MgCl2 or supplemented with 0–1 mM CaCl2 or 1 mM EDTA. […] In addition, melting curves for KRAS WT (50 nM) were measured with GTP analogs GTPγS, GMPPNP, and GMPPCP (0–300 µM), and GMP (0–1000 µM) in the presence of 1 mM MgCl2.

[6] = system: Gαi; assay: Protein-Probe thermal stability assay; assay type: binding; details: 100 µM GDP or GTP
Method: as §1, §2, §4

[7] = system: T6, KRAS G12C; assay: Protein-Probe thermal stability assay; assay type: binding, human; details: for thermal stability effect: 10 µM compound, 1 mM MgCl2
T6 construct: GG-Hs.KRAS4b (2-188) G12C; His6-MBP (N, cleaved yes); made in house; host or cells: E. coli
Method: All Protein-Probe assays were performed using a sample volume of 8 µL and a two-step assay protocol. […] Assays were performed in a sample buffer containing 10 mM HEPES (pH 7.5), 0.001% Triton X-100 and 20 mM NaCl and the buffer was supplemented with 0–10 mM MgCl2, 0–1 mM CaCl2, or 0–1 mM EDTA, depending on the assay. In all thermal stability assays, samples were preincubated at RT for 10 min (nucleotides) or 30 min (inhibitors) prior to thermal measurements. […] At each temperature, samples were incubated for 3 min before the Protein-Probe solution was added, and the TRL-signals at 620 nm were monitored at RT. […]
as §3

[8] = system: KRAS G12D; assay: Protein-Probe thermal stability assay; assay type: binding, human; details: KRAS G12D 50 nM; 10 µM compound
Method: as §1, §2, §4
All inhibitor assays were performed with a buffer containing 1 mM MgCl2.
as §5

In the case of `Nc1nc2c(ncn2C2OC(COP(=O)(O)OP(=O)(O)CP(=O)(O)O)C(O)C2O)c(=O)[nH]1` (stereo not drawn) [GMP-PCP, guanosine-5’-[(β,γ)-methyleno]triphosphate], the “KRAS binding level” value [1] is reported as “micromolar”, the EC50 [1] is reported as 542 ± 38 nM and the “KRAS stabilizing effect” value ([2]; KRAS WT 50 nM) is reported as “minor effects”. The “Thermal Stability (°C)” value ([2]; KRAS WT 50 nM) was 64.4 °C.
For `Nc1nc2c(ncn2[C@@H]2O[C@H](COP(=O)(O)OP(=O)(O)NP(=O)(O)O)[C@@H](O)[C@H]2O)c(=O)[nH]1` [GMP-PNP, guanosine-5’-[(β,γ)-imido]triphosphate], the “KRAS binding level” value [1] was “micromolar”, the EC50 [1] was 71.2 ± 9.3 nM and the “Tm of nucleotide-preloaded KRAS” value ([2]; KRAS 50 nM preloaded with the nucleotide, unit not given, in °C (unit assumed)) was 53.2 ± 0.3. The “concentration at which KRAS was stabilized” value (shortened to “concentration”) ([2]; KRAS WT 50 nM) was 300000 nM and the “Thermal Stability (°C)” value ([2]; KRAS WT 50 nM) was 67.1 ± 0.1 °C.
With `Nc1nc2c(ncn2[C@@H]2O[C@H](COP(=O)(O)OP(=O)(O)OP(=O)(O)O)[C@@H](O)[C@H]2O)c(=O)[nH]1` [GTP, guanosine-5’-triphosphate] the KRAS binding [1] was < 15 nM, the EC50 [1] was 7.9 ± 0.6 nM and the “concentration” value ([2]; KRAS WT 50 nM) was 10000 nM. For the same molecule, the “Thermal Stability (°C)” value ([2]; KRAS WT 50 nM) was 68.2 °C, the “Thermal Stability (°C)” value [3] was 60.8 °C and the “Thermal Stability (°C)” value [4] was 71.7 °C. The “Thermal Stability (°C)” value [5] was 73.0 °C, the “max ΔTm” value ([6]; with Mg2+) was ≤ 1.0 °C and the “max ΔTm” value ([6]; without Mg2+) was ≤ 3.3 °C.
With `Cn1cnc(Cn2ccc3ccc(CNCc4[nH]c5ccccc5c4[C@@H]4NC(=O)c5ccc(O)cc54)cc32)c1` [BI-2853] the “effect on KRAS nucleotide exchange activity” value ([1]; 100 nM KRAS WT, 10 nM SOScat) was “no effect”, the “thermal stability effect” value ([2]; KRAS WT 50 nM) was “Neither compound altered” and the “thermal stability effect” value ([7]; KRAS G12C 50 nM) was “no response”. For the same molecule, the “thermal stability effect” value [8] was “Neither compound altered”.
With `Nc1nc2c(ncn2[C@@H]2O[C@H](COP(=O)(O)O)[C@@H](O)[C@H]2O)c(=O)[nH]1` [GMP, guanosine-5’-monophosphate] the EC50 [1] was 101000 ± 8000 nM, the “KRAS stabilizing effect” value ([2]; KRAS WT 50 nM) was “no KRAS stabilizing effect; also recorded: no KRAS stabilization” and the “Thermal Stability (°C)” value ([2]; KRAS WT 50 nM) was 61.3 °C.
With `Cn1cnc(Cn2ccc3ccc(CNCc4[nH]c5ccccc5c4[C@H]4NC(=O)c5ccc(O)cc54)cc32)c1` [BI-2852] the IC50 ([1]; 100 nM KRAS WT, 10 nM SOScat, inhibitor preincubated with KRAS) was 2800 ± 700 nM, the “thermal stability effect” value ([2]; KRAS WT 50 nM) was “Neither compound altered; also recorded: negligible” and the “thermal stability effect” value ([7]; KRAS G12C 50 nM) was “negligible”. For the same molecule, the “thermal stability effect” value [8] was “Neither compound altered; also recorded: negligible”.
For `Nc1nc2c(ncn2[C@@H]2O[C@H](COP(=O)(O)OP(=O)(O)OP(O)(O)=S)[C@@H](O)[C@H]2O)c(=O)[nH]1` [GTPγS, guanosine-5’-(γ-thio)-triphosphate], the KRAS binding [1] was < 15 nM, the EC50 [1] was 11.7 ± 0.8 nM and the “concentration” value ([2]; KRAS WT 50 nM) was 10000 nM. For the same molecule, the “Thermal Stability (°C)” value ([2]; KRAS WT 50 nM) was 67.8 ± 0.6 °C.
`O=C(O)CN(CCN(CC(=O)O)CC(=O)O)CC(=O)O` [EDTA] was tested, and the Tm ([2]; KRAS WT 50 nM, 1 mM EDTA, unit not given, in °C (unit assumed)) was 50.8 ± 0.6, the Tm ([2]; KRAS WT 100 nM, additive 1 mM) was 48.9 ± 0.4 °C and the “Thermal Stability (°C)” value ([2]; KRAS WT 50 nM) was 49.0 °C. For the same molecule, the “Thermal Stability (°C)” value ([7]; Table S1, KRAS G12C 50 nM, EDTA 0.5 mM, MgCl2 1 mM) was 48.2 ± 0.4 °C, the Tm ([3]; KRAS G13D 100 nM, additive 1 mM) was 43.6 ± 0.8 °C and the “Thermal Stability (°C)” value [3] was 47.7 ± 0.5 °C. For the same molecule, the Tm ([4]; KRAS Q61R 100 nM, additive 1 mM) was 50.6 ± 1.0 °C, the “Thermal Stability (°C)” value [4] was 51.8 ± 0.9 °C and the “Thermal Stability (°C)” value [5] was 44.7 °C.
`[Ca+2].[Cl-].[Cl-]` [CaCl2] was tested, and the “stability increase compared to 1 mM EDTA” value ([2]; KRAS WT 50 nM, additive 0.1 mM) was 1.2 °C and the “stability increase compared to 1 mM EDTA” value ([2]; KRAS WT 50 nM, additive 1 mM) was 3.7 °C.
`CNCc1ccccc1-c1csc([C@@H](C)Nc2nc(C)nc3cc(OC)c(OC)cc23)c1` [BAY-293] was tested, and the “thermal stability effect” value ([7]; KRAS G12C 50 nM) was “no response”.
`C=C(F)C(=O)N1CCN(c2nc(OC[C@@H]3CCCN3C)nc3c2CCN(c2cccc4cccc(Cl)c24)C3)C[C@@H]1CC#N` [MRTX849] gave a ΔTm ([7]; 50 nM KRAS G12C, inhibitor 0–900 nM, thermal stability increase) of 15.6 °C.

— publication PMC9266822, “Thermal Shift Assay for Small GTPase Stability Screening: Evaluation and Suitability” (International Journal of Molecular Sciences, 2022)
